The source of these data is US8450317B2, “CXCR3 receptor antagonists” (Boehringer Ingelheim International GmbH, priority 2009, dated 2013).

Sequence of CXCR3 (A0A2K5UV19 entry or part of it): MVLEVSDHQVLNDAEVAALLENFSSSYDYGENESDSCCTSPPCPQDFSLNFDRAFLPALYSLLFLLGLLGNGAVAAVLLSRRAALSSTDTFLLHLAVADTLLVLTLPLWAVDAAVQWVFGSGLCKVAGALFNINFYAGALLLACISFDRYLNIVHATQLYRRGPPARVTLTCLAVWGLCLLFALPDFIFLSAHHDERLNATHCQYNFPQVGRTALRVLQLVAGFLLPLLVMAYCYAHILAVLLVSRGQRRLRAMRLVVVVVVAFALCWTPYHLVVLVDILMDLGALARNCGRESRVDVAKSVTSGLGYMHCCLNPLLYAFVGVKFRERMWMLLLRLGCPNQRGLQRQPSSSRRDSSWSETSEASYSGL

The assay has as its target CXCR3 (Macaca fascicularis, UniProt A0A2K5UV19). The assay can be described thus: functional cellular assay measuring calcium flux in CXCR3 transfected cells (block of CXCR3/IP-10 interaction). The assay is classed as cell-based, Cyno. The note with it: IP-10 induced intracellular calcium flux; Cyno-CHO cells stably expressing recombinant CXCR3 and G-alpha-16; IP-10 at EC80; read-out: IC50. In outline:
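Cyno-CHO cells stably expressing CXCR3 and G-alpha-16, loaded with Ca-4 dye in HBSS/10 mM HEPES pH 7.4 with 2 mM probenecid for 1 h at 37° C. Compound (final 10 microM) preincubated 15 min at room temperature, then IP-10 at EC80 added; calcium flux read at 480/540 nm.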
The term IC50 denotes the midpoint of a concentration-inhibition curve. Regarding `Cc1cc(C)n(CC(=O)N2CCN(c3ccccc3-c3cnc(N4C[C@H]5CC[C@@H]4C5)nc3)CC2)n1` [1-(4-{2-[(1R,4S)-2-(2-Aza-bicyclo[2.2.1]hept-2-yl)-pyrimidin-5-yl]-phenyl}-piperazin-1-yl)-2-(3,5-dimethyl-pyrazol-1-yl)-ethanone], the IC50 was determined as 4 nM.

Take `CC1CN(c2ccc(C(F)(F)F)cc2-c2cnc(N3CCC(S(C)(=O)=O)CC3)nc2)CCN1C(=O)CN1Cc2ccccc2C1=O` (stereo not shown) [2-(2-{2-methyl-4-[2-{2-[4-(methylsulfonyl)piperidin-1-yl]pyrimidin-5-yl}-4-(trifluoromethyl)phenyl]piperazin-1-yl}-2-oxoethyl)-2,3-dihydro-1H-isoindol-1-one]: the IC50 amounted to 7 nM.

For `CS(=O)(=O)c1ncc(-c2ccccc2N2CCN(C(=O)Cn3ccc4cccnc43)CC2)cn1` [1-{4-[2-(2-Methanesulfonyl-pyrimidin-5-yl)-phenyl]-piperazin-1-yl}-2-pyrrolo[2,3-b]pyridin-1-yl-ethanone], the IC50 was 115 nM.

In the case of `Cc1cc(C)n(CC(=O)N2CCN(c3ccccc3-c3cnc(N4CC(F)(F)C4)nc3)CC2)n1` [1-(4-{2-[2-(3,3-Difluoro-azetidin-1-yl)-pyrimidin-5-yl]-phenyl}-piperazin-1-yl)-2-(3,5-dimethyl-pyrazol-1-yl)-ethanone], the IC50 was found to be 7 nM.

As for `Cc1cc(C)n(CC(=O)N2CCN(c3ccccc3-c3cnc(N4CCCC(C(N)=O)C4)nc3)CC2)n1` (stereo not shown) [1-[5-(2-{4-[2-(3,5-Dimethyl-pyrazol-1-yl)-acetyl]-piperazin-1-yl}-phenyl)-pyrimidin-2-yl]-piperidine-3-carboxylic acid amide], the concentration for half-maximal inhibition (IC50) worked out at 9 nM.

Consider `O=C(CN1CCCCC1=O)N1CCN(c2ccc(F)cc2-c2cnc(N3CCCC3)nc2)CC1` [1-[2-(4-{4-fluoro-2-[2-(pyrrolidin-1-yl)pyrimidin-5-yl]phenyl}piperazin-1-yl)-2-oxoethyl]piperidin-2-one], for which the IC50 was 23 nM.

For `Cc1cc(C)n(CC(=O)N2CCN(c3ccc(F)cc3-c3cnc(N4CCOCC4)nc3)CC2)n1` [2-(3,5-Dimethyl-pyrazol-1-yl)-1-{4-[4-fluoro-2-(2-morpholin-4-yl-pyrimidin-5-yl)-phenyl]-piperazin-1-yl}-ethanone], the IC50 was 5 nM.

On to `COc1cc(NC(=O)c2cc(F)ccc2N2CCN(C(=O)Cn3ccc4ccncc43)[C@H](C)C2)ccn1` [5-fluoro-N-(2-methoxypyridin-4-yl)-2-[(3R)-3-methyl-4-(1H-pyrrolo[2,3-c]pyridin-1-ylacetyl)piperazin-1-yl]benzamide], for which the IC50 was found to be 9 nM.

For the compound `Cc1cc(C)n(CC(=O)N2CCN(c3ccccc3-c3cnc(N4CCCCC4)nc3)CC2)n1` [2-(3,5-Dimethyl-pyrazol-1-yl)-1-{4-[2-(2-piperidin-1-yl-pyrimidin-5-yl)-phenyl]-piperazin-1-yl}-ethanone], the IC50 came out at 7 nM.

Take `CCNc1ncc(-c2ccccc2N2CCN(C(=O)Cn3ccc4cccnc43)CC2)cn1` [1-{4-[2-(2-Ethylamino-pyrimidin-5-yl)-phenyl]-piperazin-1-yl}-2-pyrrolo[2,3-b]pyridin-1-yl-ethanone]: the IC50 is 9 nM.

As to `COC1(C)CCN(c2ncc(-c3ccccc3N3CCN(C(=O)Cn4nc(C)cc4C)CC3)cn2)CC1` [2-(3,5-Dimethyl-pyrazol-1-yl)-1-(4-{2-[2-(4-methoxy-4-methyl-piperidin-1-yl)-pyrimidin-5-yl]-phenyl}-piperazin-1-yl)-ethanone], the IC50 is 33 nM.

Turning to `COc1cc(NC(=O)c2cc(F)ccc2N2CCN(C(=O)Cn3nc(C)cc3C)[C@H](C)C2)ccn1` [2-{(3R)-4-[(3,5-dimethyl-1H-pyrazol-1-yl)acetyl]-3-methylpiperazin-1-yl}-5-fluoro-N-(2-methoxypyridin-4-yl)benzamide], the IC50 was found to be 8 nM.

Take `Cc1ocnc1C(=O)N(C)CC(=O)N1CCN(c2ccc(F)cc2C(=O)Nc2nc3c(s2)CN(C)CC3)C[C@@H]1C` [N-{2-[(2S)-4-{4-fluoro-2-[(5-methyl-4,5,6,7-tetrahydro[1,3]thiazolo[5,4-c]pyridin-2-yl)carbamoyl]phenyl}-2-methylpiperazin-1-yl]-2-oxoethyl}-N,5-dimethyl-1,3-oxazole-4-carboxamide]: the half-maximal inhibitory concentration (IC50) is 21 nM.

On to `CC1CN(c2ccc(F)cc2-c2cnc(S(C)(=O)=O)nc2)CCN1C(=O)Cn1c(=O)[nH]c2ccccc21` (stereo not shown) [1-[2-(4-{4-fluoro-2-[2-(methylsulfonyl)pyrimidin-5-yl]phenyl}-2-methylpiperazin-1-yl)-2-oxoethyl]-1,3-dihydro-2H-benzimidazol-2-one], for which the IC50 amounted to 60 nM.

For `CC1CN(c2ccc(F)cc2-c2cnc(N3CCC(S(C)(=O)=O)CC3)nc2)CCN1C(=O)Cn1cnc2cccnc21` (stereo not shown) [1-[4-(4-fluoro-2-{2-[4-(methylsulfonyl)piperidin-1-yl]pyrimidin-5-yl}phenyl)-2-methylpiperazin-1-yl]-2-(3H-imidazo[4,5-b]pyridin-3-yl)ethanone], the IC50 was determined as 13 nM.

Consider `Cc1ocnc1C(=O)N(C)CC(=O)N1CCN(c2ccc(F)cc2C(=O)Nc2nc3c(s2)CN(C)CC3)C[C@H]1C` [N-{2-[(2R)-4-{4-fluoro-2-[(5-methyl-4,5,6,7-tetrahydro[1,3]thiazolo[5,4-c]pyridin-2-yl)carbamoyl]phenyl}-2-methylpiperazin-1-yl]-2-oxoethyl}-N,5-dimethyl-1,3-oxazole-4-carboxamide], for which the IC50 stood at 35 nM.

As for `O=C(CN1CCCCC1=O)N1CCN(c2ccc(F)cc2-c2cnc(N3CCC(O)CC3)nc2)CC1` [1-[2-(4-{4-fluoro-2-[2-(4-hydroxypiperidin-1-yl)pyrimidin-5-yl]phenyl}piperazin-1-yl)-2-oxoethyl]piperidin-2-one], the half-inhibitory concentration (IC50) came out at 16 nM.

Consider `Cc1cc(C)n(CC(=O)N2CCN(c3ccccc3-c3cnc(Oc4cccnc4)nc3)CC2)n1` [2-(3,5-Dimethyl-pyrazol-1-yl)-1-(4-{2-[2-(pyridin-3-yloxy)-pyrimidin-5-yl]-phenyl}-piperazin-1-yl)-ethanone], for which the IC50 worked out at 56 nM.

For `Cc1cc(C)n(CC(=O)N2CCN(c3ccccc3-c3cnc(N4CCC(N(C)C)CC4)nc3)CC2)n1` [1-(4-{2-[2-(4-Dimethylamino-piperidin-1-yl)-pyrimidin-5-yl]-phenyl}-piperazin-1-yl)-2-(3,5-dimethyl-pyrazol-1-yl)-ethanone], the IC50 came out at 31 nM.

`CC1CN(c2ccccc2-c2cnc(N3CCC(O)CC3)nc2)CCN1C(=O)Cn1ccc2cccnc21` (stereo not shown) [1-(4-{2-[2-(4-hydroxypiperidin-1-yl)pyrimidin-5-yl]phenyl}-2-methylpiperazin-1-yl)-2-(1H-pyrrolo[2,3-b]pyridin-1-yl)ethanone]: the IC50 came out at 9 nM.

On to `CS(=O)(=O)c1ncc(-c2cc(F)ccc2N2CCN(C(=O)Cn3c(=O)[nH]c4ccccc43)CC2)cn1` [1-[2-(4-{4-fluoro-2-[2-(methylsulfonyl)pyrimidin-5-yl]phenyl}piperazin-1-yl)-2-oxoethyl]-1,3-dihydro-2H-benzimidazol-2-one], for which the IC50 was 47 nM.

For `COc1ncc(-c2cc(Cl)ccc2N2CCN(C(=O)Cn3nc(C)cc3C)CC2)cn1` [1-{4-[4-Chloro-2-(2-methoxy-pyrimidin-5-yl)-phenyl]-piperazin-1-yl}-2-(3,5-dimethyl-pyrazol-1-yl)-ethanone], the IC50 came to 12 nM.

As to `Cc1cc(C)n(CC(=O)N2CCN(c3ccccc3-c3cnc(N4CCOCC4)nc3)CC2)n1` [2-(3,5-Dimethyl-pyrazol-1-yl)-1-{4-[2-(2-morpholin-4-yl-pyrimidin-5-yl)-phenyl]-piperazin-1-yl}-ethanone], the half-inhibitory concentration (IC50) was found to be 9 nM.

As for `Cc1cc(C)n(CC(=O)N2CCN(c3ccccc3-c3cnc(N4CCC(O)CC4)nc3)CC2C)n1` (stereo not shown) [2-(3,5-dimethyl-1H-pyrazol-1-yl)-1-(4-{2-[2-(4-hydroxypiperidin-1-yl)pyrimidin-5-yl]phenyl}-2-methylpiperazin-1-yl)ethanone], the IC50 came to 13 nM.

Regarding `Cc1cc(C)n(CC(=O)N2CCN(c3ccc(F)cc3-c3cnc(N4CCCC4)nc3)CC2)n1` [2-(3,5-dimethyl-1H-pyrazol-1-yl)-1-(4-{4-fluoro-2-[2-(pyrrolidin-1-yl)pyrimidin-5-yl]phenyl}piperazin-1-yl)ethanone], the IC50 is 16 nM.

Regarding `Cc1cc(C)n(CC(=O)N2CCN(c3ccccc3-c3cnc(N4CCC5CCCCC5C4)nc3)CC2)n1` (stereo not shown) [2-(3,5-Dimethyl-pyrazol-1-yl)-1-(4-{2-[2-(octahydro-isoquinolin-2-yl)-pyrimidin-5-yl]-phenyl}-piperazin-1-yl)-ethanone], the half-inhibitory concentration (IC50) stood at 21 nM.

For the compound `O=C(Cn1ccc2cccnc21)N1CC=C(c2ccccc2-c2cnc(N3CCOCC3)nc2)CC1` [1-{4-[2-(2-Morpholin-4-yl-pyrimidin-5-yl)-phenyl]-3,6-dihydro-2H-pyridin-1-yl}-2-pyrrolo[2,3-b]pyridin-1-yl-ethanone], the IC50 worked out at 20 nM.

Take `CC1CN(c2ccc(F)cc2-c2cnc(S(C)(=O)=O)nc2)CCN1C(=O)Cn1ccc2cccnc21` (stereo not shown) [1-(4-{4-fluoro-2-[2-(methylsulfonyl)pyrimidin-5-yl]phenyl}-2-methylpiperazin-1-yl)-2-(1H-pyrrolo[2,3-b]pyridin-1-yl)ethanone]: the IC50 is 48 nM.

Consider `CC1CN(C(=O)Cn2ccc3cccnc32)CCN1c1ccccc1-c1cnc(N2CCOCC2)nc1` (stereo not shown) [1-{3-Methyl-4-[2-(2-morpholin-4-yl-pyrimidin-5-yl)-phenyl]-piperazin-1-yl}-2-pyrrolo[2,3-b]pyridin-1-yl-ethanone], for which the IC50 was 11 nM.

`O=C(Cn1cnc2cccnc21)N1CCN(c2ccc(F)cc2-c2cnc(N3CCC(O)CC3)nc2)CC1` [1-(4-{4-fluoro-2-[2-(4-hydroxypiperidin-1-yl)pyrimidin-5-yl]phenyl}piperazin-1-yl)-2-(3H-imidazo[4,5-b]pyridin-3-yl)ethanone]: the IC50 amounted to 8 nM.

As for `CC1CN(c2ccc(C(F)(F)F)cc2-c2cnc(N3CCC(S(C)(=O)=O)CC3)nc2)CCN1C(=O)CN1CCCCC1=O` (stereo not shown) [1-(2-{2-methyl-4-[2-{2-[4-(methylsulfonyl)piperidin-1-yl]pyrimidin-5-yl}-4-(trifluoromethyl)phenyl]piperazin-1-yl}-2-oxoethyl)piperidin-2-one], the IC50 turned out to be 11 nM.
